How the values were obtained:
[1] = system: fine lines and wrinkles; assay: Clinical evaluations of the hexapeptide complex: fine lines and wrinkles; type: in vivo
Text: (§1) The combination of ingredients of the skin care compositions of the present invention are believed to provide synergistic benefits which are otherwise not available with any one of the components used by itself. Clinical evaluations based on the use of the hexapeptide complex itself evidenced a reduction in fine lines and wrinkles, including laugh lines, frown lines, and smile lines, by approximately 13% after 2 weeks and approximately 33% in 4 weeks of use. It was further observed that 100% of participants experienced a reduction in under-eye fine lines and wrinkles on the average of approximately 16% after 4 weeks and approximately 52% after 8 weeks of use. Additionally, an increase in moisture content by 37% after 15 minutes of use was observed.

[2] = system: skin; assay: Clinical evaluations of the hexapeptide complex: moisture content; type: in vivo; settings: after 15 minutes of use
Text: as §1

Q: Which results are given for “acetyl hexapeptide-3 [hexapeptide complex]”?
A: reduction in fine lines and wrinkles, including laugh lines, frown lines, and smile lines ([1]; after 2 weeks): approximately 13%; average reduction in under-eye fine lines and wrinkles ([1]; after 4 weeks): approximately 16%; average reduction in under-eye fine lines and wrinkles ([1]; after 8 weeks of use): approximately 52%; reduction in fine lines and wrinkles, including laugh lines, frown lines, and smile lines ([1]; in 4 weeks of use): approximately 33%; participants who experienced a reduction in under-eye fine lines and wrinkles ([1]; in vivo): 100%; increase in moisture content [2]: 37%
